Results published in PubChem BioAssay (NCI).
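Compound exposure: 48 hours, 5 concentrations, 96-well plates. TGI: concentration producing complete growth inhibition.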

Columns and labels:
Assay in all cases: growth of human tumour cells (NCI), 48 h
SK-MEL-2 melanoma = test system: SK-MEL-2 melanoma
OVCAR-8 ovarian = test system: OVCAR-8 ovarian
DU-145 prostate = test system: DU-145 prostate
MOLT-4 leukemia = test system: MOLT-4 leukemia
CAKI-1 renal = test system: CAKI-1 renal
KM12 colon = test system: KM12 colon
T-47D breast = test system: T-47D breast
HCC-2998 colon = test system: HCC-2998 colon
RXF 393 renal = test system: RXF 393 renal
786-0 renal = test system: 786-0 renal
SR leukemia = test system: SR leukemia

Structure (SMILES) | TGI (SK-MEL-2 melanoma) [µM] | TGI (OVCAR-8 ovarian) [µM] | TGI (DU-145 prostate) [µM] | TGI (MOLT-4 leukemia) [µM] | TGI (CAKI-1 renal) [µM] | TGI (KM12 colon) [µM] | TGI (T-47D breast) [µM] | TGI (HCC-2998 colon) [µM] | TGI (RXF 393 renal) [µM] | TGI (786-0 renal) [µM] | TGI (SR leukemia) [µM]
CCC(c1ccc(OC)cc1)C1NC(=S)NC1=O (centres undefined) | > 50 | > 50 | > 50 | > 50 | > 50 | > 50 | > 50 | > 50 | > 50 | > 50 | 
CC(C)(CN1CCCCC1)C(=O)CC(SCCN)c1ccc(Cl)cc1 (centres undefined) | 3.32 | 5.45 |  | 4.72 | 5.85 | 5.23 |  | 3.76 | 5.94 | 3.21 | 
C#C[C@]1(O)[C@@H](CO)O[C@@H](n2ccc(N)nc2=O)[C@@H]1O | 0.617 | > 100 | 6.22 | > 32 | 0.122 | 4.4 |  | 0.196 | 2.12 |  | 
CN(C)CC1CCCCCCCCCCCCC(CN(C)C)C1=O (centres undefined) | 26 | 22.4 |  | 20.8 | 26.3 | 24 |  | 22.2 | 24 | 21.7 | 14
O=C1CCCC2=C1CC1=C(CCCC1=O)N2c1ccc([N+](=O)[O-])cc1 |  | > 100 |  | > 100 | > 100 | > 100 |  | > 100 | > 100 | > 100 | > 100
COc1ccc(NS(=O)c2c(C)cc(C)cc2C)cc1 (centres undefined) | > 100 | > 100 | > 100 | > 100 |  | 98.8 | > 100 | > 100 |  | > 100 | > 100
O=[N+]([O-])c1ccc(CN=C2NNS(=O)(=O)c3ccccc32)cc1 | > 100 | > 100 |  | > 100 | > 100 | > 100 |  | > 100 | > 100 | > 100 | 99.7
COC1=CC(=O)c2c(cc3c(c2O)-c2c(OC)cc4cc5c(c(O)c4c2OC(=O)CC(C)(O)C3)C(=O)CC(C)(O)C5)C1=O (centres undefined) | 2.71 | 6.49 |  | 6.67 | 5.87 | 8.98 |  | 3.21 | 3.89 | 7.72 | 5.07
CN1C(C)(C)CC(=O)C(Br)C1(C)C (centres undefined) | > 100 | > 100 | > 100 | > 100 | > 100 | > 100 | > 100 |  |  | > 100 | > 100
O=C(Cc1ccccc1)NN1C(=O)C(Cl)C1c1cccc([N+](=O)[O-])c1 (centres undefined) | > 73.8 | > 100 |  | 45 | > 63.8 | > 100 |  | > 100 | 93 | > 84.4 | 22.1
O=C1Oc2cc3c(c4cccc1c24)OCN(c1ccccc1)C3 | > 100 | > 100 |  | > 100 | > 100 | > 100 |  | > 100 | > 100 | > 100 | > 100
CC(=O)N=c1ccc2nc(N)nn(O)c-2c1 | > 100 | > 100 | > 100 | > 100 | > 100 | > 100 | > 100 |  |  | > 100 | > 100
COC(=O)CC(CNC(=O)OCc1ccccc1)OCc1ccc(OC)cc1 (centres undefined) | > 100 | > 100 | > 100 | > 100 | > 100 | > 100 |  | > 100 | > 100 | > 100 | > 100
CN1c2ccccc2C(=O)NC12CCNCC2 |  | > 100 | > 100 | > 100 |  | > 100 | > 100 | > 100 | > 100 | > 100 | > 100
O=C(CCN1CCC(CCO)CC1)Nc1ccc2c(c1)C(=O)c1ccc(NC(=O)CCN3CCC(CCO)CC3)cc1C2=O | 13.6 | 61.6 |  | 24.5 | > 100 | 10.5 |  | 88.7 | > 100 | 27.2 | 55.7
Cc1ccc(C(=O)N2CCCCC2)cc1N=NN(C)C | > 100 | > 100 |  | > 100 | > 100 | > 100 |  | > 100 |  | > 100 | > 100
O=C1CC(C(OCc2ccccc2)C(OCc2ccccc2)C(OCc2ccccc2)C(COCc2ccccc2)OCc2ccccc2)CC(=O)N1 (centres undefined) |  | > 100 | > 100 | > 100 |  |  |  | > 100 | > 100 | > 100 | > 100
Cc1[nH]c2nc3c(ncn3COCCO)c(=O)n2c1C(c1ccccc1)(c1ccccc1)c1ccccc1 | 29.8 | 32.4 | 26.2 | 24.3 | > 100 | 28.5 | 29.7 | 26.4 | 26.2 | 32.2 | 
CCCCCCCCCCCCCCCC(=O)Nc1ccn(C2CCC(COP(=O)(O)OCC3OC(n4cc(F)c(=O)[nH]c4=O)CC3OC(C)=O)O2)c(=O)n1 (centres undefined) | 47.6 | > 72.2 | > 100 | 30.4 | > 42.5 | 34.8 | > 66.5 | > 48.2 | > 100 | > 100 | 
CC(C)CC(NC=O)C(=O)NC(Cc1ccccc1)NC(=O)CNC(=O)C(C)NC(=O)C(N)Cc1ccc(O)cc1 (centres undefined) |  | > 100 | > 100 | > 100 | > 100 | > 100 | > 100 |  | > 100 | > 100 | > 100
O=P(CCOc1ccccc1OCCP(=O)(c1ccccc1)c1ccc2c(c1)OCCOCCOCCOCCO2)(c1ccccc1)c1ccc2c(c1)OCCOCCOCCOCCO2 (centres undefined) | > 100 | > 100 |  | > 100 |  |  |  | > 100 | > 100 | > 100 | > 100
O=C1Nc2ccccc2/C1=C\c1c(-c2ccccc2)nc2n1CCS2 | 28.5 | > 100 | 40.7 | 81 | > 100 | 37.5 | 76.8 | 34.8 | 47.2 | 45.5 | 
c1ccc2nn(C3CCCO3)nc2c1 (centres undefined) | > 100 | > 100 | > 100 | > 100 | > 100 |  | > 100 | > 100 | > 100 | > 100 | 
